Tests used:
[1] = system: p53-dependent transcription in ARN8 human melanoma cells; experiment: p53-dependent transcription reporter (CPRG assay) in ARN8 cells; type: cell-based; details: ARN8, 16 h
Procedure: A 20,000 compound library was purchased from ChemBridge consisting of 10,000 from the DIVERSet and 10,000 from the CombiSet libraries. […] A total of 30,000 additional compounds from the ChemBridge DIVERSet that were previously screened in a T22 cell background[12] were re-screened in ARN8 cells at 5 µM. The ChemBridge codes for these compounds can be made available upon request. All chemical synthesis is detailed in Supplementary Information with NMR spectra and reaction schemes detailed in Supplementary Figs. 13–19.

[2] = system: ARN8 cells; experiment: Giemsa staining of ARN8 cultures (uridine, orotic acid, dihydroorotic acid supplementation); type: cell-based, human; details: 72 h, 2.5 or 5 μM uridine, serum replacement medium
Procedure: Additionally, ARN8 cells were treated for 16 h and p53-dependent transcription was measured by CPRG assay. Values correspond to the average of three technical repeats ± SD. c Simplified description of the pyrimidine nucleotide de novo (blue) and salvage (black) pathways. d ARN8 cells were seeded in FBS supplemented DMEM with a change to serum replacement medium 24 h post seeding. […] Values correspond to the average of three technical repeats ± SD. f ARN8 cells were seeded in FBS supplemented DMEM with a change to serum replacement medium 24 h post seeding.

[3] = system: ARN8 xenograft; experiment: ARN8 subcutaneous xenograft; type: in vivo
Procedure: All animal xenograft experiments were approved by the Norwegian Animal Research Authority and conducted according to The European Convention for the Protection of Vertebrates Used for Scientific Purposes. […] The health status and weight of the mice were monitored daily and they were randomized in a non-blinded manner into 4 groups when tumor volumes reached 30–40 mm^3. […] Tumor volumes were measured every second day by a digital caliper using the following ellipsoid formula: Volume = π (length × width × height)/6.
To determine the efficacy of (R)-HZ05 in combination with nutlin-3a, 4 groups of NSG mice (n = 8 per group) were subcutaneously injected in the flank region with a single 100 μL injection of 2 × 10^6 ARN8 cells in a solution of PBS:Matrigel (volume ratio 3:1). Treatment was initiated when tumors reached ~50 mm^3. The maximum tolerated dose for this combination of drugs was previously determined for the strain we used. The endpoint of the experiment was determined by the tumor size ([…]) weight loss, and general condition of the mice according to The Norwegian Animal Research Authority.

[4] = target: CDK1/CycA2 (Homo sapiens, UniProt P06493); experiment: biochemical; set-up: radiometric 33PanQinase protein kinase activity assay, CDK/cyclin panel, per cent remaining activity; details: read-out: (R)-HZ00 10 µM Average (% remaining activity)
Text: (§1) Supplementary Table 1. In vitro inhibition (% remaining activity) of cyclin-dependent
(§2) ProQinase GmbH (Freiburg, Germany) using a radiometric protein kinase assay
(§3) (33PanQinase® Activity Assay).
(§4) (1 picture or pasted object on this page, not shown here) 32 Supplementary Table 1. In vitro inhibition (% remaining activity) of cyclin-dependent kinases (CDKs).

[5] = target: CDK1/CycB1 (Homo sapiens, UniProt P06493); experiment: biochemical; set-up: radiometric 33PanQinase protein kinase activity assay, CDK/cyclin panel, per cent remaining activity; details: read-out: (R)-HZ00 10 µM Average (% remaining activity)
Text: as §1, §2, §3, §4

[6] = target: CDK1/CycE1 (Homo sapiens, UniProt P06493); experiment: biochemical; set-up: radiometric 33PanQinase protein kinase activity assay, CDK/cyclin panel, per cent remaining activity; details: read-out: (R)-HZ00 10 µM Average (% remaining activity)
Text: as §1, §2, §3, §4

[7] = target: CDK2/CycA2 (Homo sapiens, UniProt P24941); experiment: biochemical; set-up: radiometric 33PanQinase protein kinase activity assay, CDK/cyclin panel, per cent remaining activity; details: read-out: (R)-HZ00 10 µM Average (% remaining activity)
Text: as §1, §2, §3, §4

[8] = target: CDK2/CycE1 (Homo sapiens, UniProt P24941); experiment: biochemical; set-up: radiometric 33PanQinase protein kinase activity assay, CDK/cyclin panel, per cent remaining activity; details: read-out: (R)-HZ00 10 µM Average (% remaining activity)
Text: as §1, §2, §3, §4

[9] = target: CDK3/CycE1 (Homo sapiens, UniProt Q00526); experiment: biochemical; set-up: radiometric 33PanQinase protein kinase activity assay, CDK/cyclin panel, per cent remaining activity; details: read-out: (R)-HZ00 10 µM Average (% remaining activity)
Chain of CDK3/CycE1 (Q00526 whole entry): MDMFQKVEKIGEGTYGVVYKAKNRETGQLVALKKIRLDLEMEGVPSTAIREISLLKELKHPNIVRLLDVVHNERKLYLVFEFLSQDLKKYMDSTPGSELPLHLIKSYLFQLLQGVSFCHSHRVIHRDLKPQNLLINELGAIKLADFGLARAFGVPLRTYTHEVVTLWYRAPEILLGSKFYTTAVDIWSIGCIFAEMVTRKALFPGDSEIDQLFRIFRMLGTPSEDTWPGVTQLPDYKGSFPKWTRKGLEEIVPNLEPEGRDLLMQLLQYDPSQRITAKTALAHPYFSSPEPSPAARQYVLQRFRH
Chain of CDK3/CycE1 (P24864 whole entry partner): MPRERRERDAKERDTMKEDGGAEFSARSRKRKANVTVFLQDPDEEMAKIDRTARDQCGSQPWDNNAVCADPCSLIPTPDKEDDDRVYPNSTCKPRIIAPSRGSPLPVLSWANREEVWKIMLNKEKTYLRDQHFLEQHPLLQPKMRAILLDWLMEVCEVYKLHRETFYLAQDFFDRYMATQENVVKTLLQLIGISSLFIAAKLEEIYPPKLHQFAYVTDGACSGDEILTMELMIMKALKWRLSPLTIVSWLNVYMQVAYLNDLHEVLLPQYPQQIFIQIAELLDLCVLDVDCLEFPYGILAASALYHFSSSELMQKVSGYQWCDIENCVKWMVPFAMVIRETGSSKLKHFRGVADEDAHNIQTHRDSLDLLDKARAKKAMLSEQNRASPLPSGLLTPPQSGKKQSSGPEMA
Text: as §1, §2, §3, §4

[10] = target: CDK4/CycD1 (Homo sapiens, UniProt P11802); experiment: biochemical; set-up: radiometric 33PanQinase protein kinase activity assay, CDK/cyclin panel, per cent remaining activity; details: read-out: (R)-HZ00 10 µM Average (% remaining activity)
Chain of CDK4/CycD1 (P11802 whole entry): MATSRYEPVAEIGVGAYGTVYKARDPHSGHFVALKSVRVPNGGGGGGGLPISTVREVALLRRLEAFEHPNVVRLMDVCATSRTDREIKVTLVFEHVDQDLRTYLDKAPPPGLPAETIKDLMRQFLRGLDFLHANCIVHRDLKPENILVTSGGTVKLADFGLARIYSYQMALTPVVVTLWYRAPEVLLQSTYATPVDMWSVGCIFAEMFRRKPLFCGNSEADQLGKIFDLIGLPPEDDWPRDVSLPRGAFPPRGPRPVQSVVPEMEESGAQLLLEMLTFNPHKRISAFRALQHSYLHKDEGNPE
Chain of CDK4/CycD1 (P24385 whole entry partner): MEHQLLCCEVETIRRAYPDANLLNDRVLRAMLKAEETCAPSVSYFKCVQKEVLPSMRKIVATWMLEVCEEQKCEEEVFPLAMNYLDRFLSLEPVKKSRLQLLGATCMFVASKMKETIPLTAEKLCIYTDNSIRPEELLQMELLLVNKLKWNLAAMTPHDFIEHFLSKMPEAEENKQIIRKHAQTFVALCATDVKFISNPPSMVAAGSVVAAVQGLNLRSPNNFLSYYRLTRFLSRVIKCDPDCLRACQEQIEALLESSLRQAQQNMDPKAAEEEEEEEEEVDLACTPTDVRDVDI
Text: as §1, §2, §3, §4

[11] = target: CDK4/CycD3 (Homo sapiens, UniProt P11802); experiment: biochemical; set-up: radiometric 33PanQinase protein kinase activity assay, CDK/cyclin panel, per cent remaining activity; details: read-out: (R)-HZ00 10 µM Average (% remaining activity)
Chain of CDK4/CycD3 (P11802 whole entry): as the sequence (P11802 whole entry) above
Chain of CDK4/CycD3 (P30281 whole entry partner): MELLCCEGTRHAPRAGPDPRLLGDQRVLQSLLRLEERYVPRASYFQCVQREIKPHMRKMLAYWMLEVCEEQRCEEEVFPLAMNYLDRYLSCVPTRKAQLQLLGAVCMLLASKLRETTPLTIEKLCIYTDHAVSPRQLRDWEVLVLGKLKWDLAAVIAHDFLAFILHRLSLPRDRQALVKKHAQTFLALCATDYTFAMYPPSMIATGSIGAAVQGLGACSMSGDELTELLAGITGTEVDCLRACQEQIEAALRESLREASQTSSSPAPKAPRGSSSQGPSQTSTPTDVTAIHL
Text: as §1, §2, §3, §4

[12] = target: T1, CDK5/p25NCK (Homo sapiens, UniProt Q00535); experiment: biochemical; set-up: radiometric 33PanQinase protein kinase activity assay, CDK/cyclin panel, per cent remaining activity; details: read-out: (R)-HZ00 10 µM Average (% remaining activity)
T1 construct: p25
Text: as §1, §2, §3, §4

[13] = target: T2, CDK5/p35NCK (Homo sapiens, UniProt Q00535); experiment: biochemical; set-up: radiometric 33PanQinase protein kinase activity assay, CDK/cyclin panel, per cent remaining activity; details: read-out: (R)-HZ00 10 µM Average (% remaining activity)
T2 construct: p35
Text: as §1, §2, §3, §4

[14] = target: CDK6/CycD1 (Homo sapiens, UniProt Q00534); experiment: biochemical; set-up: radiometric 33PanQinase protein kinase activity assay, CDK/cyclin panel, per cent remaining activity; details: read-out: (R)-HZ00 10 µM Average (% remaining activity)
Text: as §1, §2, §3, §4

[15] = target: CDK7/CycH/MAT1 (Homo sapiens, UniProt P50613); experiment: biochemical; set-up: radiometric 33PanQinase protein kinase activity assay, CDK/cyclin panel, per cent remaining activity; details: read-out: (R)-HZ00 10 µM Average (% remaining activity)
Text: as §1, §2, §3, §4

[16] = target: CDK8/CycC (Homo sapiens, UniProt P49336); experiment: biochemical; set-up: radiometric 33PanQinase protein kinase activity assay, CDK/cyclin panel, per cent remaining activity; details: read-out: (R)-HZ00 10 µM Average (% remaining activity)
Chain of CDK8/CycC (P49336 whole entry): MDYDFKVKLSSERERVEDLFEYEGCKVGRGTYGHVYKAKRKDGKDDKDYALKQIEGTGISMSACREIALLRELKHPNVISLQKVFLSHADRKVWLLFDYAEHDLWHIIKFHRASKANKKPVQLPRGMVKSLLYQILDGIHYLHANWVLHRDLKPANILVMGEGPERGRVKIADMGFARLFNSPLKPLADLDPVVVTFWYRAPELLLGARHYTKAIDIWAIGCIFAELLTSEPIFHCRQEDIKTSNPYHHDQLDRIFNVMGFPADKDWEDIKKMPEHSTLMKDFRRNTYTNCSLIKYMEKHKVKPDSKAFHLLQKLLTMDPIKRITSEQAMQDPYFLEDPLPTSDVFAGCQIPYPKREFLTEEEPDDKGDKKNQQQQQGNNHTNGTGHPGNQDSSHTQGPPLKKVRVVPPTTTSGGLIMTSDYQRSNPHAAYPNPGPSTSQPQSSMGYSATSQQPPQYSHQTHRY
Chain of CDK8/CycC (P24863 whole entry partner): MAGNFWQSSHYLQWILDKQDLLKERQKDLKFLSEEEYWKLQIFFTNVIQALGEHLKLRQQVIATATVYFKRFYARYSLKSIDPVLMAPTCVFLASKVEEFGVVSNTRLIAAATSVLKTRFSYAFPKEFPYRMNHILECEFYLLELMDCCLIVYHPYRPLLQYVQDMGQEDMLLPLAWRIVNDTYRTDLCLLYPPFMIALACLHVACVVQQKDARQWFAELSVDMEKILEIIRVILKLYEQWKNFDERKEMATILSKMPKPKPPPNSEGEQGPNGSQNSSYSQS
Text: as §1, §2, §3, §4

[17] = target: CDK9/CycK (Homo sapiens, UniProt P50750); experiment: biochemical; set-up: radiometric 33PanQinase protein kinase activity assay, CDK/cyclin panel, per cent remaining activity; details: read-out: (R)-HZ00 10 µM Average (% remaining activity)
Chain of CDK9/CycK (P50750 whole entry): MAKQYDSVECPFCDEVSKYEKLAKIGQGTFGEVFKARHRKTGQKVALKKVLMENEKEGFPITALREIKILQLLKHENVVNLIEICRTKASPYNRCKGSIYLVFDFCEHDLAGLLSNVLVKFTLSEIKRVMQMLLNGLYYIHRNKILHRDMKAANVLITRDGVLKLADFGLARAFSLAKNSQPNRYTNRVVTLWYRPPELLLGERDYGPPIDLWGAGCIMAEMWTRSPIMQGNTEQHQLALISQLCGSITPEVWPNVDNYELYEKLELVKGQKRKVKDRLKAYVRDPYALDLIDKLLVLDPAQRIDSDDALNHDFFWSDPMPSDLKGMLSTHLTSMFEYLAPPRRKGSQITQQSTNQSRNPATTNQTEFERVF
Chain of CDK9/CycK (O75909 whole entry partner): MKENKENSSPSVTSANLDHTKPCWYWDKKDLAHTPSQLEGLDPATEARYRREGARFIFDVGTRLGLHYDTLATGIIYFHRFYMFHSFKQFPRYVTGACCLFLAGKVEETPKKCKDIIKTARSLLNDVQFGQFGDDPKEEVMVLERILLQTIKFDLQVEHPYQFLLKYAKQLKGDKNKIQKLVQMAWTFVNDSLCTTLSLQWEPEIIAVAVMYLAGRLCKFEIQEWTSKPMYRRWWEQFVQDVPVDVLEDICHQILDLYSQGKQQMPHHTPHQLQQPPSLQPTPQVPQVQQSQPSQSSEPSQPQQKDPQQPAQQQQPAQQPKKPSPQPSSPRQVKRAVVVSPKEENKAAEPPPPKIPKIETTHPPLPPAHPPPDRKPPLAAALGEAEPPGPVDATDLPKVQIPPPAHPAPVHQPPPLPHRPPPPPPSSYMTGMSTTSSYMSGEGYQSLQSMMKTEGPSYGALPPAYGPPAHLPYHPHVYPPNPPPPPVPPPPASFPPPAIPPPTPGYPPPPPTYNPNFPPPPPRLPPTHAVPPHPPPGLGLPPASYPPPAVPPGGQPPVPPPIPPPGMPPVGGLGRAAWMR
Text: as §1, §2, §3, §4

[18] = target: CDK9/CycT1 (Homo sapiens, UniProt P50750); experiment: biochemical; set-up: radiometric 33PanQinase protein kinase activity assay, CDK/cyclin panel, per cent remaining activity; details: read-out: (R)-HZ00 10 µM Average (% remaining activity)
Chain of CDK9/CycT1 (P50750 whole entry): as the sequence (P50750 whole entry) above
Chain of CDK9/CycT1 (O60563 whole entry partner): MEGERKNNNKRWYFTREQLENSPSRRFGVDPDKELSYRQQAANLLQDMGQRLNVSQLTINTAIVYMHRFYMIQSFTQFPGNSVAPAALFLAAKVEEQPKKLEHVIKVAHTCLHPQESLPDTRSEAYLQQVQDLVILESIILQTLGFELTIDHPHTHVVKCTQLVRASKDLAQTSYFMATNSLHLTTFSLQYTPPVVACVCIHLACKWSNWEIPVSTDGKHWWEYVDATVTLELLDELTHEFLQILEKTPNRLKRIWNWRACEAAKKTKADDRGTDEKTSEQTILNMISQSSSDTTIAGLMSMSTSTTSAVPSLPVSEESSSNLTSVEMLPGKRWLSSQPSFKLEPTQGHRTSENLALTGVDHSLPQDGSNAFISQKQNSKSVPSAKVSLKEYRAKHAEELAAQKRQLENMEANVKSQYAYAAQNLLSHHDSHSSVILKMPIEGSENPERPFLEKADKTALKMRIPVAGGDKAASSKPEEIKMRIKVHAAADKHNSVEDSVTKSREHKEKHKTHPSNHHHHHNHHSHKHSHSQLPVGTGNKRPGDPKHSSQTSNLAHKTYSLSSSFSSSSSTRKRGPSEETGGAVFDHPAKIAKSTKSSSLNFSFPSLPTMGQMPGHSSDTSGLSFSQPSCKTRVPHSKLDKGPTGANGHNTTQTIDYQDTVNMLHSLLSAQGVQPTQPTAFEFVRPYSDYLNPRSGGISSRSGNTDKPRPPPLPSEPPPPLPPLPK
Text: as §1, §2, §3, §4

[19] = target: T3, PCTAIRE1/CycY (Homo sapiens, UniProt Q00536); experiment: biochemical; set-up: radiometric 33PanQinase protein kinase activity assay, CDK/cyclin panel, per cent remaining activity; details: read-out: (R)-HZ00 10 µM Average (% remaining activity)
T3 construct: gene CDK16
Text: as §1, §2, §3, §4

[20] = target: T4, recombinant human DHODH (Homo sapiens, UniProt Q02127); experiment: Kinetic DHODH enzyme assay (3,4-dimethoxy-5-methyl-p-benzoquinone, DCIP); type: biochemical; set-up: made in house; details: Fig. 5a; average of three independent repeats ± SD
Procedure: In Fig. 5a enzyme assays were optimized and performed with 6 nM recombinant human DHODH prepared as described. The reaction mixture for these kinetic assays consisted of 1 mM DL-dihydroorotic acid, 100 µM 3,4-dimethoxy-5-methyl-p-benzoquinone (#D9150, Sigma-Aldrich), and 100 µM DCIP in enzyme buffer. A stock solution of 20 mM DCIP was prepared in enzyme buffer and filtered through filter paper (20–25 μm pore size) just before use. Loss in absorbance by DCIP was measured at 595 nm at RT in a stepped time course (8 × 2 min, 8 × 3 min, 6 × 5 min). […] Therefore, for each concentration of inhibitor tested, a value for DHODH’s Vmax was estimated by linear regression within this time frame.
Target sequence in this assay (Q02127 29-395 limits assumed): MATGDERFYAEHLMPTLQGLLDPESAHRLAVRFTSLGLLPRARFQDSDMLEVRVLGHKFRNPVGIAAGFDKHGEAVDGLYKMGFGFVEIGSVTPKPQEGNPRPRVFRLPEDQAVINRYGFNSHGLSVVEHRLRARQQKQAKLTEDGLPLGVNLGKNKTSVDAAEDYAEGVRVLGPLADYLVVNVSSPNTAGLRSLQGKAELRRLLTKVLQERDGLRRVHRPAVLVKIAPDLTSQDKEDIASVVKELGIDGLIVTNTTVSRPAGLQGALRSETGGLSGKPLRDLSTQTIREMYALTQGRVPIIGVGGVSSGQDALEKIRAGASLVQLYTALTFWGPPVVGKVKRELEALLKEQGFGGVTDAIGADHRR

[21] = system: ARN8 cells; experiment: SRB growth/viability assay, ARN8; type: cell-based, human; details: ARN8; Fig. 4e
Procedure: SRB assays measuring protein content were performed in 96-well plates as previously described.

[22] = target: T4, recombinant human DHODH; experiment: Endpoint DHODH enzyme assay (coenzyme Q10, DCIP); type: biochemical; set-up: purchased Prospecbio ENZ-642; details: compound at 10 µM; Supplementary Table 5, 20,000 compound library
Procedure: In Supplementary Tables 5 and 6, endpoint assays were performed with 10 nM recombinant human DHODH (#ENZ-642, Prospecbio). The reaction mixture consisted of 624.6 µM DL-dihydroorotic acid, 66.4 µM coenzyme Q10, 66.4 µM 2,6-dichlorophenolindophenol sodium salt (DCIP) (all reagents purchased from Sigma-Aldrich) in enzyme buffer (50 mM Tris-HCl, pH 8.0, 0.1% Triton X-100, 150 mM KCl). Loss in absorbance by DCIP was measured at 595 nm after incubation at RT for 60 min.
Target sequence in this assay (Q02127 31-395 limits assumed): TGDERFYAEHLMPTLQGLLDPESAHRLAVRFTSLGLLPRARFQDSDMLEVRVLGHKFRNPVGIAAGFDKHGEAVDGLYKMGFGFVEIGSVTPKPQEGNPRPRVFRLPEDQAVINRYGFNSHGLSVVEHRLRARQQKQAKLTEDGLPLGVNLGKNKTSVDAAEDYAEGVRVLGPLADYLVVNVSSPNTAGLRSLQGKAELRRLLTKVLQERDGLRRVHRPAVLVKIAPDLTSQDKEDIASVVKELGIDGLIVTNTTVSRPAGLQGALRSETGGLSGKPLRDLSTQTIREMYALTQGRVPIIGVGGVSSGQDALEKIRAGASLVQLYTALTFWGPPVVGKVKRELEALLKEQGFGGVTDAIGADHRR

O=C(N[C@@H]1CCCc2c1cnn2-c1ccccc1F)c1ccccn1 [(R)-HZ00] was tested, and the “p53 reporter activity, (R)- versus (S)-enantiomer” value [1] was “significantly higher p53 reporter activity”, the “tumor cell growth at physiological uridine levels” value [2] was “markedly reduce tumor cell growth” and the “xenograft tumor growth, combination with nutlin-3” value ([3]; (R)-HZ00 150 mg kg−1 i.p. q.d. + nutlin-3 100 mg kg−1 p.o. q.d.) was “significant ARN8 xenograft tumor growth inhibition”. The “toxicity in xenograft study” value ([3]; mice, (R)-HZ00 150 mg kg−1 i.p. q.d., nutlin-3 100 mg kg−1 p.o. q.d.) was “not toxic”, the remaining activity at 10 µM [4] was 90.9% and the remaining activity at 10 µM [5] was 100%. It also gave a remaining activity at 10 µM [6] of 103%, a remaining activity at 10 µM [7] of 101% and a remaining activity at 10 µM [8] of 96.8%. The remaining activity at 10 µM [9] was 90.8%, the remaining activity at 10 µM [10] was 104% and the remaining activity at 10 µM [11] was 98.3%. For the same molecule, the remaining activity at 10 µM [12] was 113%, the remaining activity at 10 µM [13] was 101% and the remaining activity at 10 µM [14] was 97.1%. The remaining activity at 10 µM [15] was 105%, the remaining activity at 10 µM [16] was 92.4% and the remaining activity at 10 µM [17] was 95.9%. The remaining activity at 10 µM [18] was 107% and the remaining activity at 10 µM [19] was 95.4%.

O=C(N[C@H]1CCCc2c1cnn2-c1ccccc1F)c1onc2c1CCCC2 [(S)-HZ05] showed an IC50 [20] of 6.7 ± 0.67 µM.

Work on O=C(NC1CCCc2c1cnn2-c1ccc(F)cc1F)c1onc2c1CCCC2 (centres unmarked) [HZ02] yielded an IC50 [20] of 0.289 ± 0.046 µM.

In the case of Cc1ccc(-n2ncc3c2CC(C)(C)CC3NC(=O)c2ccccn2)cc1 (centres unmarked) [HZ25], the IC50 [20] is reported as greater than 10 µM.

Cc1c(-c2ccc(-c3ccccc3F)cc2)nc2ccc(F)cc2c1C(=O)O [brequinar, reference compound] was tested, and the “effects on ARN8 growth and p53-dependent transcription ± uridine compared with HZ00” value [21] was “phenocopied the effects of HZ00”.

In the case of Cc1ccc(-c2nc(CN3CCCCC3c3nccs3)c(C)o2)o1 (centres unmarked) [compound 47561416, 1-{[5-methyl-2-(5-methyl-2-furyl)-1,3-oxazol-4-yl]methyl}-2-(1,3-thiazol-2-yl)piperidine], the remaining activity at 10 µM [22] is reported as 86.3%.

For COc1ccc(-c2nc(CN3CCCC3c3ccccc3OC)c(C)o2)cc1C (centres unmarked) [compound 47870602, 2-(4-methoxy-3-methylphenyl)-4-{[2-(2-methoxyphenyl)-1-pyrrolidinyl]methyl}-5-methyl-1,3-oxazole], the “remaining DHODH activity (%) Average” value [22] was 10.68%.

CC(C)c1nc(C(=O)N2CCC3(CCCN(CCc4ccccc4)C3)C2)cs1 (centres unmarked) [compound 51157786, 2-[(2-isopropyl-1,3-thiazol-4-yl)carbonyl]-7-(2-phenylethyl)-2,7-diazaspiro[4.5]decane] showed a remaining activity at 10 µM [22] of -5.48%.

With Cc1ccccc1-c1noc(-c2ccc(N3CCC[C@H]3CO)nc2)n1 [compound 54631106, ((2S)-1-{5-[3-(2-methylphenyl)-1,2,4-oxadiazol-5-yl]-2-pyridinyl}-2-pyrrolidinyl)methanol] the “remaining DHODH activity (%) Average” value [22] was 5.94%.

CCC(C)Nc1ccc(-c2nc(-c3cccc(OC)c3OC)no2)cn1 (centres unmarked) [compound 55410102, N-(sec-butyl)-5-[3-(2,3-dimethoxyphenyl)-1,2,4-oxadiazol-5-yl]-2-pyridinamine] was tested, and the remaining activity at 10 µM [22] was 2.28%.

For CCN(CC)c1ccc(-c2nc(-c3cccc(OC)c3OC)no2)cn1 [compound 57235883, 5-[3-(2,3-dimethoxyphenyl)-1,2,4-oxadiazol-5-yl]-N,N-diethyl-2-pyridinamine], the remaining activity at 10 µM [22] was 9.4%.

COc1cccc(-c2noc(-c3ccc(N4CCCCC4)nc3)n2)c1OC [compound 57999135, 5-[3-(2,3-dimethoxyphenyl)-1,2,4-oxadiazol-5-yl]-2-(1-piperidinyl)pyridine] was tested, and the remaining activity at 10 µM [22] was 16.7%.

COc1ccc(C2c3[nH]c4ccccc4c3CCN2Cc2ccoc2)c(F)c1 (stereo not drawn) [compound 76026685, 1-(2-fluoro-4-methoxyphenyl)-2-(3-furylmethyl)-2,3,4,9-tetrahydro-1H-beta-carboline] gave a remaining activity at 10 µM [22] of 88.5%.

Molecule COc1cccc(-c2noc(-c3ccc(N4CCCC(O)C4)nc3)n2)c1OC (centres unmarked) [compound 78928129, 1-{5-[3-(2,3-dimethoxyphenyl)-1,2,4-oxadiazol-5-yl]-2-pyridinyl}-3-piperidinol] has a remaining activity at 10 µM [22] of 42.3%.

COc1ccc(C2c3[nH]c4ccccc4c3CCN2Cc2nccs2)cc1C (stereo not drawn) [compound 90739158, 1-(4-methoxy-3-methylphenyl)-2-(1,3-thiazol-2-ylmethyl)-2,3,4,9-tetrahydro-1H-beta-carboline] was tested, and the “remaining DHODH activity (%) Average” value [22] was 91.88%.

C/C(O)=C(\C#N)C(=O)Nc1ccc(C(F)(F)F)cc1 [teriflunomide, reference compound] was tested, and the “effects on ARN8 growth and p53-dependent transcription ± uridine compared with HZ00” value [21] was “phenocopied the effects of HZ00”.
